Measured values: patent US20130183686A1, “METHOD OF EVALUATING IMMUNOSUPPRESSION” (priority 2008, published 2013)
Entries after “also recorded” stand apart in the source; their conditions may differ.

Legend:
Type in all cases: cell-based, human
[1] = test system: NFAT; test: PMA/Ionomycin-induced NFAT translocation in healthy donor cells, imaging flow cytometry
[2] = test system: NFkB; test: PMA/Ionomycin-induced NFkB activation in healthy donor CD4+ cells in plasma, imaging flow cytometry; conditions: increasing concentrations of Tacrolimus (FIG. 6)
[3] = test system: NFAT; test: PMA/Ion-induced NFAT activation potential in CD4+ and CD8+ T cells of stable transplant recipients receiving tacrolimus
Protocol: Protocol to measure the NF-κB and/or NFAT activation potential in immunophenotypically defined cell populations: Obtain peripheral blood sample in sodium heparin container. Keep PBL sample at ambient room temperature. Prepare sufficient number of 15 mL polypropylene tubes (10-9152N, Niagara Scientific, Lancaster, N.Y.) to accommodate the number of variables to be tested. One tube is needed for the unstimulated control, one for the unstimulated cell line control (HL60 […] or Jurkat) and two (1 for HL60 and 1 for patient sample) for each of the stimulation conditions to be tested (e.g. PMA/Ion, TNFα, CD3/CD28, etc.). Aliquot 500 μl whole blood per tube for the patient samples. For cell line controls, add enough volume from culture flask to yield 2×10^6 cells/tube. […]
Cell line controls are washed in 1× Phosphate Buffered saline solution (1×PBS) (Mediatech, Herndon, Va.), and then fixed by adding 1 ml of a 4% solution of methanol free Formaldehyde (Polysciences, Warrington, Pa.) at room temperature for 10 minutes. Cells are washed twice in 1×PBS, spin, and resuspend cell pellets in residual volume (they are now ready to be probed for NF-κB and/or NFAT and are left at room temperature until whole blood samples are ready). […] Cells are now ready to be probed for NF-κB and/or NFAT. […] Samples are then washed in 1×PBS and are ready to be run on the imaging cell sorting machine. […]

[4] = test system: NFAT1; test: PMA/Ionomycin-induced NFAT1 translocation in Jurkat cells incubated in patient plasma obtained after in vivo tacrolimus administration; conditions: patient plasma obtained between 1 h and 12 h after tacrolimus administration (FIGS. 8 and 9)

**Q.** With `C=CC[C@@H]1/C=C(\C)C[C@H](C)C[C@H](OC)[C@H]2O[C@@](O)(C(=O)C(=O)N3CCCC[C@H]3C(=O)O[C@H](/C(C)=C/[C@@H]3CC[C@@H](O)[C@H](OC)C3)[C@H](C)[C@@H](O)CC1=O)[C@H](C)C[C@@H]2OC` [tacrolimus] as the compound, how does the NFAT translocation potential ([1]; healthy donor CD4+ cells in plasma, increasing concentrations of Tacrolimus (FIG. 6)) read?
**A.** dose-dependent decrease

**Q.** What about the “inhibition of PMA/Ion-induced NFAT translocation” value ([1]; healthy donor peripheral blood, CD4+ cells in culture medium, increasing concentration of tacrolimus (FIG. 5)) of the same compound?
**A.** dose-dependent inhibition

**Q.** And the “correlation between extracellular concentrations and PMA/Ionomycin-induced NFAT1 activation potential” value ([1]; in vitro, spiked into tissue culture media, plasma or whole blood, naive cells (Jurkat or healthy donor CD4+ or CD8+ T cells))?
**A.** a strong correlation is observed

**Q.** What about the “inhibitory effect on NFkB activation” value [2] of the same compound?
**A.** less pronounced for NFkB but can be seen at higher drug concentrations

**Q.** And the “correlation between trough tacrolimus levels and NFAT activation potential” value ([3]; CD4+ and CD8+ cells of transplant recipients chronically exposed to tacrolimus)?
**A.** Neither for CD4+ nor CD8+ cells was a correlation found; also recorded: no statistically significant dose-response relationship was observed

**Q.** What about the “difference in NFAT activation potential before (0 h) and after (4 h) a dose” value ([3]; CD4+ or CD8+ cells of stable transplant recipients) of the same compound?
**A.** did not determine a significant difference

**Q.** And the “inhibitory effect on NFAT in cells naive to previous tacrolimus exposure” value [4]?
**A.** closely mirrors that of the expected plasma levels; also recorded: a good dose-response was observed
